Reference: PubChem BioAssay (NCI)
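48-hour exposure; five concentrations; linearly interpolated endpoints. At the GI50, growth is halved. TGI denotes the concentration required for complete inhibition of growth.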

Key:
Experiment in all cases: DTP human tumour cell line panel, 48 h
UO-31 renal = system: UO-31 renal
SF-295 CNS = system: SF-295 CNS
NCI-H226 lung = system: NCI-H226 lung
HCT-15 colon = system: HCT-15 colon
MALME-3M melanoma = system: MALME-3M melanoma
M14 melanoma = system: M14 melanoma
OVCAR-4 ovarian = system: OVCAR-4 ovarian
HS 578T breast = system: HS 578T breast
SK-MEL-28 melanoma = system: SK-MEL-28 melanoma
LOX IMVI melanoma = system: LOX IMVI melanoma
NCI-H522 lung = system: NCI-H522 lung
MOLT-4 leukemia = system: MOLT-4 leukemia
A498 renal = system: A498 renal
HOP-62 NSCLC = system: HOP-62 NSCLC
KM12 colon = system: KM12 colon
MDA-MB-435 = system: MDA-MB-435
HOP-92 NSCLC = system: HOP-92 NSCLC
HT29 colon = system: HT29 colon
U251 CNS = system: U251 CNS
RXF 393 renal = system: RXF 393 renal
UACC-257 melanoma = system: UACC-257 melanoma
SNB-75 CNS = system: SNB-75 CNS
DU-145 prostate = system: DU-145 prostate
MDA-MB-231 breast = system: MDA-MB-231 breast
IGROV1 ovarian = system: IGROV1 ovarian
OVCAR-5 ovarian = system: OVCAR-5 ovarian
NCI-H460 lung = system: NCI-H460 lung
SK-OV-3 ovarian = system: SK-OV-3 ovarian
BT-549 breast = system: BT-549 breast
HL-60(TB) leukemia = system: HL-60(TB) leukemia
ACHN renal = system: ACHN renal
SK-MEL-2 melanoma = system: SK-MEL-2 melanoma
SNB-19 CNS = system: SNB-19 CNS
NCI/ADR-RES ovarian = system: NCI/ADR-RES ovarian
SN12C renal = system: SN12C renal
OVCAR-3 ovarian = system: OVCAR-3 ovarian
OVCAR-8 ovarian = system: OVCAR-8 ovarian
SR leukemia = system: SR leukemia
EKVX NSCLC = system: EKVX NSCLC
MCF7 breast = system: MCF7 breast
COLO 205 colon = system: COLO 205 colon
A549 NSCLC = system: A549 NSCLC
SF-539 CNS = system: SF-539 CNS
HCC-2998 colon = system: HCC-2998 colon
NCI-H23 lung = system: NCI-H23 lung
K-562 leukemia = system: K-562 leukemia
SW-620 colon = system: SW-620 colon
TK-10 renal = system: TK-10 renal
SF-268 CNS = system: SF-268 CNS
RPMI-8226 leukemia = system: RPMI-8226 leukemia
T-47D breast = system: T-47D breast
HCT-116 colon = system: HCT-116 colon
SK-MEL-5 melanoma = system: SK-MEL-5 melanoma
CCRF-CEM leukemia = system: CCRF-CEM leukemia

## CS(=O)(=O)OCCn1c2c(c3c(O)cccc31)C(=O)c1ccccc1-2
UO-31 renal
  GI50: > 100 µM
  TGI: > 100 µM
SF-295 CNS
  GI50: 84.3 µM
  TGI: > 100 µM
NCI-H226 lung
  GI50: 39.7 µM
  TGI: > 100 µM
HCT-15 colon
  GI50: > 100 µM
  TGI: > 100 µM
MALME-3M melanoma
  GI50: > 100 µM
  TGI: > 100 µM
M14 melanoma
  GI50: > 100 µM
  TGI: > 100 µM
OVCAR-4 ovarian
  GI50: > 100 µM
  TGI: > 100 µM
HS 578T breast
  GI50: > 100 µM
  TGI: > 100 µM
SK-MEL-28 melanoma
  GI50: > 100 µM
  TGI: > 100 µM
LOX IMVI melanoma
  GI50: 54.1 µM
  TGI: > 100 µM
NCI-H522 lung
  GI50: 95.1 µM
  TGI: > 100 µM
MOLT-4 leukemia
  GI50: 36.5 µM
  TGI: > 100 µM
A498 renal
  GI50: > 100 µM
  TGI: > 100 µM
HOP-62 NSCLC
  GI50: 87.1 µM
  TGI: > 100 µM
KM12 colon
  GI50: 80.2 µM
  TGI: > 100 µM
MDA-MB-435
  GI50: 46 µM
  TGI: > 100 µM
HOP-92 NSCLC
  GI50: 24.7 µM
  TGI: > 100 µM
HT29 colon
  GI50: 99.8 µM
  TGI: > 100 µM
U251 CNS
  GI50: 77.3 µM
  TGI: > 100 µM
RXF 393 renal
  GI50: > 100 µM
  TGI: > 100 µM
UACC-257 melanoma
  GI50: > 100 µM
  TGI: > 100 µM
SNB-75 CNS
  GI50: > 100 µM
  TGI: > 100 µM
DU-145 prostate
  GI50: > 100 µM
  TGI: > 100 µM
MDA-MB-231 breast
  GI50: 20.4 µM
  TGI: > 100 µM
IGROV1 ovarian
  GI50: > 100 µM
  TGI: > 100 µM
OVCAR-5 ovarian
  GI50: > 100 µM
  TGI: > 100 µM
NCI-H460 lung
  GI50: > 100 µM
  TGI: > 100 µM
SK-OV-3 ovarian
  GI50: 29 µM
  TGI: > 100 µM
BT-549 breast
  GI50: > 100 µM
  TGI: > 100 µM
HL-60(TB) leukemia
  GI50: 30.9 µM
  TGI: > 100 µM
ACHN renal
  GI50: 60.3 µM
  TGI: > 100 µM
SK-MEL-2 melanoma
  GI50: > 100 µM
  TGI: > 100 µM
SNB-19 CNS
  GI50: 40.7 µM
  TGI: > 100 µM
NCI/ADR-RES ovarian
  GI50: > 100 µM
  TGI: > 100 µM
SN12C renal
  GI50: 33.7 µM
  TGI: > 100 µM
OVCAR-3 ovarian
  GI50: 66.6 µM
  TGI: > 100 µM
OVCAR-8 ovarian
  GI50: > 100 µM
  TGI: > 100 µM
SR leukemia
  GI50: 10.3 µM
  TGI: > 100 µM
EKVX NSCLC
  GI50: > 100 µM
  TGI: > 100 µM
MCF7 breast
  GI50: > 100 µM
  TGI: > 100 µM
COLO 205 colon
  GI50: > 100 µM
  TGI: > 100 µM
A549 NSCLC
  GI50: > 100 µM
  TGI: > 100 µM
SF-539 CNS
  GI50: > 100 µM
  TGI: > 100 µM
HCC-2998 colon
  GI50: 36 µM
  TGI: > 100 µM
NCI-H23 lung
  GI50: > 100 µM
  TGI: > 100 µM
K-562 leukemia
  GI50: > 100 µM
  TGI: > 100 µM
SW-620 colon
  GI50: > 100 µM
  TGI: > 100 µM
TK-10 renal
  GI50: > 100 µM
  TGI: > 100 µM
SF-268 CNS
  GI50: 78.5 µM
  TGI: > 100 µM
RPMI-8226 leukemia
  GI50: 19.7 µM
  TGI: > 100 µM
T-47D breast
  GI50: 64.7 µM
  TGI: > 100 µM
HCT-116 colon
  GI50: 44.7 µM
  TGI: > 100 µM
SK-MEL-5 melanoma
  GI50: > 100 µM
  TGI: > 100 µM
CCRF-CEM leukemia
  GI50: 37.1 µM
  TGI: > 100 µM
